Structures can show the parent of a compound that is named as a salt. ± gives the standard deviation of the averaged measurements.
Key:
[1] = tested on: Homo sapiens (human subject panel, olfactory perception); test: perceived odor familiarity rating (rating 0-100); higher = more familiar
Procedure: (§1)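 Human olfactory psychophysics. 55 healthy subjects (after excluding 6 low performers) sniffed 1 mL of each odorant diluted in paraffin oil (vials, two dilutions per molecule, 20 molecules presented twice). Each subject rated intensity, pleasantness and familiarity on a 0-100 slider, starting at 50 and required to move. Ratings were given only when the subject reported detecting a smell; per-subject ratings are averaged over subjects.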

[2] = tested on: Homo sapiens (human subject panel, olfactory perception); test: perceived odor pleasantness rating (rating 0-100); higher = more pleasant
Procedure: as §1

[3] = tested on: Homo sapiens (human subject panel, olfactory perception); test: perceived odor intensity rating (rating 0-100); higher = stronger perceived smell
Procedure: as §1

[4] = odor dilution in paraffin oil: 1/1,000
[5] = odor dilution in paraffin oil: 1/100,000
[6] = odor dilution in paraffin oil: 1/10
[7] = odor dilution in paraffin oil: 1/10,000,000

SMILES	perceived odor familiarity rating [1, 4]	perceived odor familiarity rating [1, 5]	perceived odor pleasantness rating [2, 4]	perceived odor pleasantness rating [2, 5]	perceived odor intensity rating [3, 4]	perceived odor intensity rating [3, 5]	perceived odor familiarity rating [1, 6]	perceived odor pleasantness rating [2, 6]	perceived odor intensity rating [3, 6]	perceived odor familiarity rating [1, 7]	perceived odor pleasantness rating [2, 7]	perceived odor intensity rating [3, 7]
CCCCCC1=C(C)CCC1=O [Dihydrojasmone]	48.1 ± 28	42.9 ± 29	44.5 ± 26	48.5 ± 24	62.7 ± 28	44.3 ± 28	–	–	–	–	–	–
c1ccc(COCc2ccccc2)cc1 [Benzyl ether]	31 ± 26	–	49.2 ± 23	–	25.2 ± 26	–	63.8 ± 32	67.8 ± 27	75.7 ± 24	–	–	–
CCCOC(=O)CC [Propyl propionate]	50.4 ± 32	33.7 ± 27	44.4 ± 26	48.7 ± 25	72.1 ± 21	22.9 ± 25	–	–	–	–	–	–
C1CCCCC1 [Cyclohexane]	51.6 ± 32	–	40.5 ± 24	–	49 ± 34	–	55.1 ± 29	48.2 ± 27	57.4 ± 34	–	–	–
CCOC(=O)C(C)CC (stereo unspecified) [Ethyl 2-methylbutyrate]	69.6 ± 30	67.3 ± 25	75.1 ± 24	77.9 ± 20	76.5 ± 18	55.4 ± 28	–	–	–	–	–	–
CC(=O)OC(C)C [isopropyl acetate (replicate)]	46.2 ± 33	44.5 ± 32	41.3 ± 23	49.9 ± 25	49.4 ± 34	22.7 ± 22	–	–	–	–	–	–
O=Cc1ccccc1 [benzaldehyde]	61.3 ± 27	45.3 ± 34	61.5 ± 29	64.6 ± 22	77.4 ± 17	30.6 ± 29	–	–	–	–	–	–
O=c1ccc2ccccc2o1 [coumarin]	55.9 ± 31	–	65.1 ± 25	–	62.8 ± 26	–	63.8 ± 30	67.2 ± 26	77.5 ± 16	–	–	–
O=C(OCc1ccccc1)c1ccccc1O [Benzyl salicylate]	38 ± 28	–	53.6 ± 24	–	28.4 ± 28	–	40.7 ± 29	57.6 ± 23	48.6 ± 30	–	–	–
CC(=O)OC1CC(C)CCC1C(C)C [L-Menthyl acetate]	45.6 ± 25	–	53.4 ± 23	–	15.4 ± 24	–	57.8 ± 31	61.5 ± 25	63.7 ± 26	–	–	–
O=C1CCCC1 [Cyclopentanone]	33.1 ± 30	–	36 ± 25	–	52.3 ± 33	–	48.9 ± 34	29.6 ± 25	81.4 ± 23	–	–	–
C=CCOC(=O)/C=C/c1ccccc1 [Allyl cinnamate]	40.5 ± 28	44 ± 27	52.4 ± 28	52.4 ± 24	57 ± 32	46.8 ± 30	–	–	–	–	–	–
C/C=C/c1ccc(OC)c(OC)c1 [methyl isoeugenol]	48.2 ± 31	30.1 ± 24	58.8 ± 26	39.5 ± 23	37.9 ± 31	25.4 ± 35	–	–	–	–	–	–
COc1ccc(C=O)cc1OC [Veratraldehyde]	53 ± 28	–	62.4 ± 22	–	35.2 ± 29	–	75.1 ± 26	75.3 ± 22	74.1 ± 23	–	–	–
CC(C)[C@H](N)C(=O)O [L-Valine]	41.5 ± 34	–	50.5 ± 24	–	33.1 ± 33	–	39.1 ± 31	40.9 ± 25	42.1 ± 29	–	–	–
c1cnc2c(n1)CCCC2 [5,6,7,8-Tetrahydroquinoxaline]	–	65.5 ± 28	–	55.6 ± 25	–	68.2 ± 24	–	–	–	44.4 ± 26	42.9 ± 27	40.3 ± 31
CCOC=O [Ethyl formate]	24.9 ± 20	–	48.2 ± 22	–	16.5 ± 26	–	43.9 ± 32	36 ± 26	51.6 ± 35	–	–	–
CCc1ccco1 [2-Ethylfuran]	45.4 ± 31	31.4 ± 29	34.4 ± 24	38.3 ± 30	52.4 ± 31	42.2 ± 35	–	–	–	–	–	–

SMILES	perceived odor familiarity rating [1, 4]	perceived odor familiarity rating [1, 5]	perceived odor pleasantness rating [2, 4]	perceived odor pleasantness rating [2, 5]	perceived odor intensity rating [3, 4]	perceived odor intensity rating [3, 5]	perceived odor familiarity rating [1, 6]	perceived odor pleasantness rating [2, 6]	perceived odor intensity rating [3, 6]	perceived odor familiarity rating [1, 7]	perceived odor pleasantness rating [2, 7]	perceived odor intensity rating [3, 7]
CSCCC=O [3-(Methylthio)propionaldehyde]	–	53.5 ± 33	–	23.9 ± 28	–	79.6 ± 23	–	–	–	49.9 ± 33	30.7 ± 26	70.3 ± 25
CCCCCCCCCCCCCCCCO [1-Hexadecanol]	42.6 ± 27	–	35.4 ± 24	–	35.8 ± 26	–	40.1 ± 30	43 ± 24	43.5 ± 31	–	–	–
CC(=O)c1cc(C)sc1C [3-Acetyl-2,5-dimethylthiophene]	47.4 ± 29	35.4 ± 30	27.7 ± 26	49.4 ± 29	78.9 ± 20	19.4 ± 20	–	–	–	–	–	–
COC(=O)c1ccco1 [methyl 2-furoate]	43.2 ± 29	39.5 ± 28	37.2 ± 24	48.7 ± 22	62.6 ± 25	33.8 ± 34	–	–	–	–	–	–
CC/C=C\CCOC(=O)c1ccccc1 [cis-3-Hexenyl benzoate]	36.3 ± 28	34 ± 23	40.8 ± 19	51.2 ± 13	40.4 ± 31	28.1 ± 26	–	–	–	–	–	–
CC(=O)c1cccnc1 [3-Acetylpyridine]	48.2 ± 33	30 ± 31	32.3 ± 29	44.8 ± 29	76.2 ± 23	24.6 ± 30	–	–	–	–	–	–
Cc1ccc(C(C)C)c(O)c1 [thymol]	55.8 ± 32	49.7 ± 29	41.8 ± 27	48.5 ± 24	71.1 ± 23	39.2 ± 30	–	–	–	–	–	–
CCCC(C)C(=O)OCC (stereo unspecified) [Ethyl 2-methylpentanoate (replicate)]	59.6 ± 31	52 ± 27	72.2 ± 18	64.9 ± 20	52.1 ± 29	50.5 ± 29	–	–	–	–	–	–
CCCCCCCCCCC=O [undecanal]	47.9 ± 32	28.2 ± 25	36.2 ± 26	50 ± 21	68.2 ± 28	20.4 ± 26	–	–	–	–	–	–
CC1CCCCC1=O (stereo unspecified) [2-Methylcyclohexanone]	49.8 ± 32	33.4 ± 30	31.6 ± 25	50.9 ± 22	74.6 ± 25	12.6 ± 18	–	–	–	–	–	–
CC(C)=CCC/C(C)=C/CO [geraniol]	51.8 ± 31	57 ± 30	59.2 ± 25	62.1 ± 27	71.8 ± 24	42.3 ± 30	–	–	–	–	–	–
CCCCC(CC)COC(C)=O (stereo unspecified) [2-ethylhexyl acetate]	38.6 ± 29	32.7 ± 29	42 ± 22	51.3 ± 22	44.4 ± 32	24.6 ± 31	–	–	–	–	–	–
CCCCCCCCCCCC(=O)OCCC(C)C [Isoamyl laurate]	31.8 ± 22	–	47.7 ± 22	–	20.3 ± 22	–	41.5 ± 29	33.7 ± 25	59.9 ± 29	–	–	–
Cc1nc(C)c(C)nc1C [2,3,5,6-Tetramethylpyrazine]	35.7 ± 28	–	49.4 ± 22	–	25.8 ± 25	–	41.3 ± 31	28.7 ± 23	79.1 ± 18	–	–	–
Cc1ccc2ncccc2c1 [6-methyl quinoline]	44 ± 30	44.3 ± 31	36.7 ± 27	60.4 ± 23	68.2 ± 27	50.9 ± 30	–	–	–	–	–	–
O=C1CCc2ccccc2O1 [Dihydrocoumarin]	59.7 ± 29	42.2 ± 30	64.8 ± 23	64.6 ± 22	70.9 ± 19	35.5 ± 30	–	–	–	–	–	–
CC(C)=CCCC(C)=CC#N [3,7-Dimethyl-2,6-octadienenitrile]	67.1 ± 29	48.4 ± 34	64.5 ± 28	60.3 ± 23	75.1 ± 22	46.2 ± 28	–	–	–	–	–	–
Cc1cscn1 [4-Methylthiazole]	46.8 ± 31	44.4 ± 29	29.4 ± 27	32.7 ± 20	60.7 ± 30	57.3 ± 28	–	–	–	–	–	–

— the supplement of paper PMC4977894
